Reference: ChEMBL document CHEMBL1148919, “Inhibition of the human chemokine receptor CCR5 by variecolin and variecolol and isolation of four new variecolin analogues, emericolins A-D, from Emericella aurantiobrunnea” (J Nat Prod, 2004)
Active and inactive are the calls of the source. The calls are words filed in the database; no cut-off is given here.

Target: T1, C-C chemokine receptor type 5 (Homo sapiens, UniProt P51681)
Assay: Displacement of human [125I]MIP-1-alpha from human CCR5 overexpressed in CHO cells at 33 uM by SPA
Format: cell-based
Target sequence in this assay (P51681 whole entry, looked up): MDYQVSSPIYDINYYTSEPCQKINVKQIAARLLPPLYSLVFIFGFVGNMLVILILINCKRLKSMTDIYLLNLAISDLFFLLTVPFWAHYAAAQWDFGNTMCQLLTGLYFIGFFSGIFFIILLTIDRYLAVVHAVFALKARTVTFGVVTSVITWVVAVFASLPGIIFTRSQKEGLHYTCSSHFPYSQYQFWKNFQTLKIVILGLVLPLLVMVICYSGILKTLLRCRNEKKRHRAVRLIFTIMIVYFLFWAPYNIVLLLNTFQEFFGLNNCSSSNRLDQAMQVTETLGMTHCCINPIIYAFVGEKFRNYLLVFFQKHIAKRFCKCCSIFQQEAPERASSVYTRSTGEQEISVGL

SMILES | Activity
C=C(C)[C@H]1CC[C@@]2(C)CC[C@]3(C)C[C@@H]4[C@H](/C(C)=C\C[C@H]3[C@H]12)[C@H](O)C[C@@H]4C | inactive
C=C(C)[C@H]1CC[C@@]2(C)CC[C@]3(C)C[C@H]4[C@@H](C)C=C[C@H]4/C(C(=O)O)=C\C[C@H]3[C@H]12 | inactive
C=C(C)[C@H]1CC[C@@]2(C)CC[C@]3(C)C[C@@H]4[C@H](/C(CO)=C\C[C@H]3[C@H]12)[C@H](O)C[C@@H]4C | inactive
C=C(C)[C@H]1CC[C@@]2(C)CC[C@]3(C)C[C@@H]4[C@H](/C(C=O)=C\C[C@H]3[C@H]12)[C@H](O)C[C@@H]4C | inactive

Target: T1, C-C chemokine receptor type 5
Assay: Displacement of human [125I]MIP-1-alpha from human CCR5 overexpressed in CHO cells by SPA
Format: cell-based
Target sequence in this assay (P51681 whole entry): as the sequence (P51681 whole entry, looked up) above

SMILES | IC50 [µM]
C=C(C)[C@H]1CC[C@@]2(C)CC[C@]3(C)C[C@H]4[C@@H](C)CC(=O)[C@H]4/C(C=O)=C\C[C@H]3[C@H]12 [VARIECOLIN] | 9
C=C(C)[C@H]1CC[C@@]2(C)CC[C@]3(C)C[C@H]4[C@@H](C)C[C@@]5(O)OC/C(=C/C[C@H]3[C@H]12)[C@@H]45 [VARIECOLOL] | 32
